Columns and labels:
[1] = system: human EMR specimens (normal mucosa, polypoid and non-polypoid dysplasia); test: Stereomicroscopic validation on EMR specimens; settings: for fluorescence intensity on stereomicroscopy: 10 μmol/L, 5 min, mean±SEM
From the text: Binding of the candidate or control peptide to the dysplasia on freshly resected human specimens via endoscopic mucosal resection (EMR) was validated on fluorescence stereomicroscopy. Patients with previously diagnosed polypoid and non-polypoid dysplasia who were referred for EMR were recruited. Institutional review board approval was obtained from the VA Palo Alto Health Care System, and informed consent was acquired. After resection, the specimens were rinsed in PBS 3× to remove debris and mucous. An autofluorescence image was acquired before incubating with the peptide. Then, specimens were incubated with either the FITC-labeled candidate or control peptide at a concentration of 10 μmol/L for 5 min. The unbound peptide was rinsed off with PBS 3×. The mucosal surface of the specimen was oriented face up, and a dab of ink was applied to the upper border as a landmark to register the white light and fluorescence images with histology. A white light image was collected from the specimen with and without an overlying transparent grid that contains squares with dimensions of 1×1 mm^2. Fluorescence images were collected at 500 milliseconds per frame (with the overlying grid removed) using a stereomicroscope (Olympus SZX-16 equipped with Rolera camera; Olympus Corp, Tokyo, Japan) using 477 to 500 nm excitation and 500 to 630 nm emission. A correction to the fluorescence images was performed because the intensity at the center of the image is greater than that in the periphery due to differences in distance. A fluorescence image was collected from a solution of 10 μM FITC in a plate to provide a uniform target for calibration, allowing for quantitative analysis over the entire field of view. After the fluorescence intensities were corrected, lines along the length of the specimen spaced by 2-mm intervals in each image were identified using the grid from the white light image. The mean intensity from each 1×1 mm^2 interval along this length of tissue was calculated using Matlab and compared with histology. Histopathologic interpretation was performed by a gastrointestinal pathologist (HA) who classified the specimens stained with H&E as normal colonic mucosa, dysplasia, or adenocarcinoma. The histopathologic evaluation of the EMR specimens was conducted at VA Palo Alto Health Care System (AM) and classified as either dysplasia or normal mucosa.

[2] = system: human colonic mucosa sections (normal, dysplasia, adenocarcinoma); test: Peptide immunohistochemistry on frozen sections (Example 11); settings: for target-to-background (T/B) ratio KCCFPAQ peptide vs. control peptide: frozen sections; for fluorescence intensity on immunohistochemistry: mean±SEM
Experimental: All specimens were obtained with approval from the University of Michigan Institutional Review Board (IRB). Freshly resected specimens of human colonic mucosa were frozen in OCT and sectioned with 10 μm thickness. The sections were then air dried, washed with PBS, and incubated with the FITC-labeled peptides at a concentration of 10 μM for 15 min at RT. The sections were washed 3× for 1 min in PBS and fixed with 4% paraformaldehyde for 10 min. After fixation, the sections were washed again and mounted with ProLong Gold reagent with DAPI (Invitrogen, Carlsbad, Calif.). The sections were imaged under a confocal microscope (Leica TCS SP5 Microsystems, Bannockburn, Ill.). Adjacent sections were sent for routine histology. The intensity for each image was calculated using Matlab (Mathworks, Natick, Mass.).

HT29 cells = test: Determination of binding constant (plate reader fluorescence); parameters: species or system human
Experimental: The binding affinity of FITC-Peptide 2 to HT29 cells (1×10^5) was determined using various concentrations of the peptide. The fluorescence intensity of the peptide bound to the HT29 cells was measured at saturation. Then, the FITC-labeled peptide was serially diluted in PBS at concentrations that varied from 0 to 70 μmol/L and incubated with 1×10^5 HT29 cells at 4° C. for 1 hr. After washing 3 times with cold PBS/0.2% Tween 20 solution, the unbound peptide was rinsed off. The cells were resuspended in 200 μL PBS and transferred to a 96 well plate. The fluorescence intensity I was measured at 525 nm using 485 nm as the excitation wavelength on a multi-well plate reader (CytoFluor Series 4000; Applied Biosystems Inc, Foster City, Calif.). Binding of the peptide to the cells was calculated using the peptide emission intensity with the same concentration without the cells present. The peptide equilibrium dissociation constant Kd=1/Ka was calculated by performing a least squares fit of the data to the non-linear equation I=(I0+ImaxKa[X])/(I0+Ka[X]). I0 and Imax are the initial and maximum fluorescence intensities, corresponding to no peptide and at saturation, respectively, and [X] represents the concentration of the bound peptide. Origin 6.1 data analysis software (Origin Lab Corp, Northampton, Mass.) was used to fit the equation for non-linear least square fitting. […]

colonic adenomas = test: In vivo imaging with non-scanning endoscope, FITC-labeled peptides; parameters: species or system CPC; Apc mice; settings: Non-scanning Endoscopy Results; FITC label; mean ± SD
From the text: Specific binding of the candidate peptides to primary dysplastic colonic epithelial cells were validated on flow cytometry ex vivo and with small animal endoscopy in vivo using FITC-labeled peptides using a non-scanning white light endoscope.

## KCCFPAQ-FITC [FITC-Peptide 2, KCCFPAQ with FITC at the C-terminus on the side chain of lysine residue via GGGSK linker]
[1]
  T/B flat adenoma to adjacent normal mucosa: ~2.0 fold
  T/B polypoid adenoma to adjacent normal mucosa: 1.8
[1]; non-polypoid dysplasia
  fluorescence intensity on stereomicroscopy: 85.1±19.2 AU
[1]; normal mucosa
  fluorescence intensity on stereomicroscopy: 43.5±10.7 AU
[1]; polypoid dysplasia
  fluorescence intensity on stereomicroscopy: 78.6±12.8 AU
[2]
  binding to adenocarcinoma compared to normal mucosa: 3.1 times
  binding to adenocarcinoma relative to dysplasia: 1.5 fold
[2]; 10 μM, 15 min, RT
  binding to normal colonic mucosa: no binding
  staining of dysplasia and adenocarcinoma: consistently stains
[2]; adenocarcinoma
  target-to-background (T/B) ratio KCCFPAQ peptide vs. control peptide: 3.6
  fluorescence intensity on immunohistochemistry: 31.5±6.0 AU
[2]; dysplasia
  target-to-background (T/B) ratio KCCFPAQ peptide vs. control peptide: 3.1
  fluorescence intensity on immunohistochemistry: 21.1±3.8 AU
[2]; normal mucosa
  target-to-background (T/B) ratio KCCFPAQ peptide vs. control peptide: 2.0
  fluorescence intensity on immunohistochemistry: 10.1±3.6 AU
HT29 cells; FITC-labeled peptide 0 to 70 μM, 4° C., 1 hr, R^2=0.988
  Kd: 65 nM
HT29 cells; summary of results
  Kd: 65 nM
Colonic adenomas
  Average T/B: 1.69 ± 0.70
